The conditions of data set [1]: human, in vivo; cited from earlier work.
The subject of data set [2] is Aspergillus fumigatus. In words: Beagle model of invasive pulmonary aspergillosis in an immunocompromised host (TBI + steroids, bronchoscopic spore inoculation). The class given is in vivo. An excerpt:
1. The “Right” Animal: While choosing an animal the inventors had to consider that a human/clinical mold infection, such as an Aspergillus infection, usually begins as a localized infection and not as a widespread and diffuse pulmonary infection. To be able to reproducibly inoculate a specified dose of an infectious agent in a limited, defined part of the airways the inventors must have easy access to a particular part of the pulmonary tree. This meant that a large animal, such as dog, pig, sheep or monkey, rather than a rodent or lagomorph should be considered. The beagle, which is accepted by both the NCI and the FDA for safety studies of pharmaceutically active agents prior to entering clinical trials, was favored. This dog is easily accessible from several commercial breeders, and in addition to the selected experimental dogs one could conveniently house extra animal's for donation of both platelets and red cells to be transfused as needed during the supportive care phase of the experiments, i.e. after the mold administration.
2. Immunosuppression: For immunosuppression the inventors chose total body irradiation (TBI) with an X-ray (Cobalt) (XRT) source, administered with the animal under general anesthesia in a specially constructed box to obtain uniform radiation exposure. […] Further, the XRT dose can be calculated such that it gives a window of fairly deep immunosuppression sustained for 3-5 weeks, which should be sufficient for the intended purpose. The XRT was followed with daily oral prednisolone administration to further suppress T-lymphocyte and macrophage function and enhance spreading the infection.
3. Mold Species: More than 90% of human clinical Aspergillus infections are a result of Aspergillus fumigatus infection.
4. Mold Dose: To standardize the mold dosage, the inventors prepared batches of Aspergillus spores that were mixed in agarose and stirred down vigorously in mineral oil to obtain a suspension of spores encapsulated in small agarose beads (the approximate average bead diameter was 20 μm). After washing the beads in 0.5% deoxycholate, they were mixed with glycerol prior to cryopreservation and storage at −70° C. The use of agar beads and other encapsulation methods are also contemplated.
5. Mold Administration: The human clinical infection usually starts as a localized airway infection either in the sinuses or in a part of one lung, and not as a generalized pulmonary infection. The inventors decided to utilize a pediatric bronchoscope to safely and reproducibly introduce the Aspergillus spores in the intermediary (lower) right lung lobe. After standardization of the dose, 1×10^6 spores encapsulated in agarose beads and resuspended in NS were infused at each occasion.
6. Time of Mold Administration: In most human patients, Aspergillus infections occur at a time of leukopenia and profound immunosuppression. The time to develop leukopenia after TBI was very reproducible in the beagles. At day 10-14 days after XRT, when the animal's absolute white blood cell count falls below about 500 per μL (neutrophil count <400 per μL), the mold spore administration was performed. The WBC remain at about <500 per μL till day 25-30 after TBI, at which time the count recovered fairly rapidly in animal's that had not been inoculated with Aspergillus spores, or in beagles who had been inoculated with a dose that was too low to yield progressive infection.
7. Supportive Care: The first few animal's died from a superimposed secondary bacterial infection rather than from the mold infection itself In addition, there were bleeding complications when the dogs' platelet count fell below 10,000 per μL. The inventors therefore decided to utilize prophylactic oral (broad-spectrum) antibiotics and “prophylactic” platelet transfusions. […]

For data set [3] the following is noted: in vivo; cited from earlier work.
Where [4] appears, read: the two dogs that rejected the infection.

SMILES strings stand for the structures.

The values that follow come from patent publication US6444872B1, “Large animal model of invasive pulmonary aspergillosis in an immunocompromised host” (priority 1999, dated 2002).

As for `C[C@@H]1[C@H](O)[C@@H](C)/C=C/C=C/C=C/C=C/C=C/C=C/C=C/[C@H](O[C@@H]2O[C@H](C)[C@@H](O)[C@H](N)[C@@H]2O)C[C@@H]2O[C@](O)(C[C@@H](O)C[C@@H](O)[C@H](O)CC[C@@H](O)C[C@@H](O)CC(=O)O[C@H]1C)C[C@H](O)[C@H]2C(=O)O` [AMB, Amphotericin B], the cases with nephrotoxicity in data set [1] was more than 75%.
With `C[C@@H]1C/C=C/C=C/C=C/C=C/[C@H](O[C@@H]2O[C@H](C)[C@@H](O)[C@H](N)[C@@H]2O)C[C@@H]2O[C@](O)(C[C@@H](O)C[C@H]3O[C@@H]3/C=C/C(=O)O1)C[C@H](O)[C@H]2C(=O)O` [Natamycin], in data set [2] (after a 16-day cycle of daily Natamycin treatments), the outcome of infection is “two animal's rejected the infection”. For the same compound, the “life span after fungal inoculation” value in data set [2] (one animal, expected life span nine days, daily intravenous Natamycin) was 17 days. Further, the Pneumonia result in data set [2] (single dog, 1 x 10^6 spores, TBI 3.0 Gy, steroid 30/10 mg, platelet/antibiotic support) was “Yes”. Further, in data set [2] (single dog, survived pneumonia 4 weeks post therapy), the “Complications (outcome)” value is given as “Dog survived”. Moreover, in data set [2] (setting [4]), the necropsy finding result is “only signs of healing” and the “time free from resurgence of the mold infection post completion of drug treatment” value was “one”. For the same compound, the “extended life as compared to untreated animals” value in data set [2] (therapy instituted a day after Aspergillus inoculum, last 3 beagles, 3.0 Gy TBI) is listed as “Natamycin extended life by 80% as compared to untreated animals”.
With `CC[C@]1(O)C[C@@H]2CN(CCc3c([nH]c4ccccc34)[C@@](C(=O)OC)(c3cc4c(cc3OC)N(C)[C@H]3[C@@](O)(C(=O)OC)[C@H](OC(C)=O)[C@]5(CC)C=CCN6CC[C@]43[C@@H]65)C2)C1` [Vinblastine], in data set [3], the “administered dose recovered in the feces after biliary excretion” value is “about 10%” and the “dose excreted intact into the urine” value was “Approximately 15%”.
